In patent US7271188B2, “Imidazolidine derivatives” (Chugai Seikayu Kabushiki Kaisha, priority 2003, dated 2007):
Read-outs that look alike come from different tables or passages of the source.

Legend:
[1] = biological target: T1, human androgen receptor (Homo sapiens, UniProt P10275); experiment: Test Example 1: agonist effect, androgen receptor reporter gene assay in 11A11B2 cells; type: cell-based; conditions: compound concentration showing transcription activity of 5% (0.1 nmol/L DHT = 100%, assay medium alone = 0%), 48 hours
T1 construct: expressed in transfected cells; host or cells: HeLa cells (clone 11A11B2), stably co-transfected with MMTV-Luc-Hyg reporter
T1 sequence (P10275 1-920): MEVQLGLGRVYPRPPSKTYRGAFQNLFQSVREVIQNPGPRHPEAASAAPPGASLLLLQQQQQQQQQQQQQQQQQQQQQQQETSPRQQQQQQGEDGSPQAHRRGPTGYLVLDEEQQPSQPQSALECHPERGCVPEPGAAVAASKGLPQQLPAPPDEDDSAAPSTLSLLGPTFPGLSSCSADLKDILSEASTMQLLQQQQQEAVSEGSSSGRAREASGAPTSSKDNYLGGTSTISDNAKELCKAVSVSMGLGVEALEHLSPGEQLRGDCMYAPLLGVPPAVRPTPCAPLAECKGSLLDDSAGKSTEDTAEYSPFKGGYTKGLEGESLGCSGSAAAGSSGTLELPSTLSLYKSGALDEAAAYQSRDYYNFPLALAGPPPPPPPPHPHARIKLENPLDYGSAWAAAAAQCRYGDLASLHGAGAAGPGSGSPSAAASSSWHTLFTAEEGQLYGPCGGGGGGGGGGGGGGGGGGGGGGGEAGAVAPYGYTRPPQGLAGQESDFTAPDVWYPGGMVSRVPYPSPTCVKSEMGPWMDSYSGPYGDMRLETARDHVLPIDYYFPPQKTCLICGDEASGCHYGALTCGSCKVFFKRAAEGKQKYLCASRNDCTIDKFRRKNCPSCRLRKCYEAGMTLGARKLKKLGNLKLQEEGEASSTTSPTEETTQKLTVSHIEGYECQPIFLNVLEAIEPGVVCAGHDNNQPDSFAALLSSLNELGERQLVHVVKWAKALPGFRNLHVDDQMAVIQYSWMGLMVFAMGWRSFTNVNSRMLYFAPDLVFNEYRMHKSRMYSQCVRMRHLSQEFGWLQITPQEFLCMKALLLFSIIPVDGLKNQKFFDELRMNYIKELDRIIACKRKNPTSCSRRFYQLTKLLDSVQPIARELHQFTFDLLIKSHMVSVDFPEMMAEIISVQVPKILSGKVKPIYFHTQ
Experimental: (§1) HeLa cells (purchased from Dai-Nippon Seiyaku K. K.) were cultured overnight in Dulbecco's Modified Eagle Medium containing no phenol red, but containing 3% charcoal-treated fetal bovine serum (hereafter referred to as DCC-FBS) (this medium is hereafter referred to as phenol-red-free DMEM). An MMTV-Luc-Hyg vector (reporter plasmid with […], containing an androgen response element and a hygromycin resistance gene: a vector obtained by substituting the chloramphenicol acetyl transferease gene of a GM-CAT vector (A.T.C.C No. 67282) purchased from the A.T.C.C. for the firefly luciferase gene, and inserting a hygromycin resistance gene), and pSG5-hAR-neo (human androgen receptor expression vector: a vector having an androgen receptor gene under the control of the SV40 promoter, and having a neomycin resistance gene inserted as a drug resistance gene) were transfected into the HeLa cells using an FuGENE™ 6 Transfection Reagent (obtained from Roche).
(§2) The clone cells thus obtained (11A11B2 cells) were maintained and propagated using DMEM containing 400 μg/mL neomycin, 200 μg/mL hygromycin and 10% FBS, and were propagated using phenol-red-free DMEM containing 10% DCC-FBS three to four days prior to the performance of an androgen receptor reporter gene assay.
The 11A11B2 cells were inoculated in a white clear-bottomed 96-well microplate (COSTAR) so that the cell concentration was 1.0×10^4/well, and were cultured overnight using phenol-red-free DMEM containing 3% DCC-FBS (hereafter referred to as the assay medium). Samples of the assay medium containing the compounds of the examples and compounds of the comparative examples were added so that the final concentrations of the compounds of the examples and compounds of the comparative examples were 1, 10, 100, 1,000 and 10,000 nmol/L (however, in the case of the compounds of Examples 1 and 2, the compounds were added so that the final concentrations were 1, 10, 100, 1,000, 10,000 and 100,000 nmol/L), and the cells were cultured for 48 hours, after which the transcription activity value was measured. The transcription activity was measured using a Bright-Glo™ Luciferase Assay System (Promega).
(§3) The transcription activity rates of the compounds of the examples were calculated from the transcription activity measured by the abovementioned method, with the transcription activity value obtained at 0.1 nmol/L DHT taken as 100%, and the transcription activity value in the case of the assay medium alone taken as 0%. The compound concentration showing a transcription activity of 5% (EC5 value) was calculated from a linear equation for two points on either side of 5%.

[2] = biological target: T1, human androgen receptor; experiment: Test Example 2: antagonist effect, androgen receptor reporter gene assay in 11A11B2 cells with 0.1 nmol/L DHT; type: cell-based
Experimental: as §1, §2
The 11A11B2 cells were inoculated in a white clear-bottomed 96-well microplate (COSTAR) so that the cell concentration was 1.0×10^4/well, and were cultured overnight using phenol-red-free DMEM containing 3% DCC-FBS (hereafter referred to as the assay medium). The assay medium containing DHT was added so that the final concentration of DHT was 0.1 nmol/L, and samples of the assay medium containing the compounds of the examples or compounds of the comparative examples were added so that the final concentrations of the compounds of the examples or compounds of the comparative examples were 1, 10, 100, 1,000 and 10,000 nmol/L, respectively. After culturing for 48 hours, the transcription activity values were measured. The transcription activity was measured using a Bright-Glo™ Luciferase Assay System (Promega).
as §3, with “0%.” for “0%. The compound concentration showing a transcription activity of 5% (EC5 value) was calculated from a linear equation for two points on either side of 5%.”
Accordingly, the value obtained by subtracting the transcription activity rate of Test Example 1 (Investigation of Agonist Activity) from the transcription activity rate of Test Example 2 (Investigation of Antagonist Activity) was used to calculate the compound concentration at which a transcription activity of 50% was shown (IC50 value). The IC50 value was calculated from a linear equation for two points on either side of 50%.

[3] = reports; cited from earlier work
[4] = biological target: androgen receptor (Homo sapiens, UniProt P10275); conditions: at a concentration of 10 μmol/L; cited from earlier work
[5] = prostate cancer patients treated with flutamide; cited from earlier work
[6] = tested on: castrated rats; conditions: continuously administered to castrated rats for two weeks; cited from earlier work
[7] = concentration giving 50% transcription activity after subtracting the Test Example 1 agonist rate, 0.1 nmol/L DHT, 11A11B2 cells, 48 hours, read-out: IC50

SMILES | EC5 [1] [nM] | IC50 [2, 7] [nM] | also measured
CN1C(=S)N(c2ccc(C#N)c(C(F)(F)F)c2)C(=O)C1(C)C [Comparative Example 1, 4-(5-oxo-2-thioxo-3,4,4-trimethyl-1-imidazolidinyl)-2-trifluoromethylbenzonitrile, reference compound] | 0.08 | – | IC50 [2]: 1 nM
CC(=O)NCCN1C(=S)N(c2ccc(C#N)c(C(F)(F)F)c2)C(=O)C1(C)C [Comparative Example 2, 4-[3′-(2″-N-acetylaminoethyl)-4′,4′-dimethyl-5′-oxo-2′-thioxo-1′-imidazolidinyl]-2-trifluoromethylbenzonitrile, reference compound] | 3000 | 800 | –
CC(O)(CS(=O)(=O)c1ccc(F)cc1)C(=O)Nc1ccc(C#N)c(C(F)(F)F)c1 (stereo not drawn) [Comparative Example 3, bicalutamide] | – | – | side effects [3]: liver toxicity
CC(C)(O)C(=O)Nc1ccc([N+](=O)[O-])c(C(F)(F)F)c1 [Comparative Example 4, hydroxyflutamide] | 10 | – | androgen receptor transcription activity [4]: increase in androgen receptor transcription activity; concentration in the blood [5]: several
CC1(C)C(=O)N(c2ccc(C#N)c(C(F)(F)F)c2)C(=S)N1CCCS(N)(=O)=O [Example 1, 4-[3′-(3″-aminosulfonylpropyl)-4′,4′-dimethyl-5′-oxo-2′-thioxo-1′-imidazolidinyl]-2-trifluoromethylbenzonitrile] | 20000 | – | IC50 [2]: 200 nM
CC1(C)C(=O)N(c2ccc(C#N)c(C(F)(F)F)c2)C(=S)N1CCCCS(N)(=O)=O [Example 2, 4-[3′-(4″-aminosulfonylbutyl)-4′,4′-dimethyl-5′-oxo-2′-thioxo-1′-imidazolidinyl]-2-trifluoromethylbenzonitrile] | >100000 | 600 | –
CC1(C)C(=O)N(c2ccc(C#N)c(C(F)(F)F)c2)C(=S)N1CCCCCCS(N)(=O)=O [Example 3, 4-[3′-(6″-aminosulfonylhexyl)-4′,4′-dimethyl-5′-oxo-2′-thioxo-1′-imidazolidinyl]-2-trifluoromethylbenzonitrile] | 3000 | 200 | –
CC1(C)C(=O)N(c2ccc(C#N)c(C(F)(F)F)c2)C(=S)N1CCCCCS(N)(=O)=O [Example 7, 4-[3′-(5″-aminosulfonylpentyl)-4′,4′-dimethyl-5′-oxo-2′-thioxo-1′-imidazolidinyl]-2-trifluoromethylbenzonitrile] | >10000 | 900 | –
CN(C)S(=O)(=O)CCCCN1C(=S)N(c2ccc(C#N)c(C(F)(F)F)c2)C(=O)C1(C)C [Example 8, 4-[3′-(4″-N,N-dimethylaminosulfonylbutyl)-4′,4′-dimethyl-5′-oxo-2′-thioxo-1′-imidazolidinyl]-2-trifluoromethylbenzonitrile] | 2000 | – | IC50 [2]: 100 nM
CN(C)S(=O)(=O)CCCCCN1C(=S)N(c2ccc(C#N)c(C(F)(F)F)c2)C(=O)C1(C)C [Example 10, 4-[3′-(5″-N,N-dimethylaminosulfonylpentyl)-4′,4′-dimethyl-5′-oxo-2′-thioxo-1′-imidazolidinyl]-2-trifluoromethylbenzonitrile] | 2000 | 200 | –
CNS(=O)(=O)CCCCN1C(=S)N(c2ccc(C#N)c(C(F)(F)F)c2)C(=O)C1(C)C [Example 16, 4-[3′-(4″-N-methylaminosulfonylbutyl)-4′,4′-dimethyl-5′-oxo-2′-thioxo-1′-imidazolidinyl]-2-trifluoromethylbenzonitrile] | >10000 | 700 | –
CC1(C)C(=O)N(c2ccc(C#N)c(C(F)(F)F)c2)C(=S)N1CCS(N)(=O)=O [Example 18, 4-[3′-(2″-aminosulfonylethyl)-4′,4′-dimethyl-5′-oxo-2′-thioxo-1′-imidazolidinyl]-2-trifluoromethylbenzonitrile] | 7000 | – | IC50 [2]: 600 nM
CC(=O)O[C@]1(C(C)=O)CC[C@H]2[C@@H]3C=C(Cl)C4=CC(=O)CC[C@]4(C)[C@H]3CC[C@@]21C [chlormadinone acetate] | – | – | weight of the prostate gland [6]: increase in the weight of the prostate gland
CC(=O)O[C@]1(C(C)=O)CC[C@H]2[C@@H]3C=C(Cl)C4=CC(=O)[C@@H]5C[C@@H]5[C@]4(C)[C@H]3CC[C@@]21C [cyproterone acetate] | – | – | weight of the prostate gland [6]: increase in the weight of the prostate gland
CC(C)C(=O)Nc1ccc([N+](=O)[O-])c(C(F)(F)F)c1 [flutamide] | – | – | side effects [3]: liver toxicity
